Measurements taken from the supplement of paper PMC5579334.

Assays:
HSC1 [1] = test: relative IC50 (inflection point of fitted dose-response curve, CellTox-Green cytotoxicity, 72 h; top asymptote may be below 50%); higher = less potent
How it was run: (§1)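 MPNST cell lines and primary human Schwann cells were incubated 72 h at 37 °C in 384-well plates holding five 10-fold compound dilutions. CellTox-Green was added before seeding at a final 1:1000 dilution and reported fluorescence from DNA released by disrupted cells. Signals were scaled to vehicle and positive-control wells, and cultures failing plate quality control were dropped. Drug sensitivity score and relative IC50 come from four-parameter logistic fits, with IC50 censored at the top concentration.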

HSC2 [2] = test: as above
How it was run: as §1

S1507-2 [3] = test: as above
How it was run: as §1

ST8814 [4] = test: as above
How it was run: as §1

STS26T [5] = test: as above
How it was run: as §1

HS-PSS = test: relative IC50 (inflection point of fitted dose-response curve, CellTiter-Glo viability, 72 h; top asymptote may be below 50% inhibition); higher = less potent
How it was run: (§2)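 Viability was scored by CellTiter-Glo ATP luminescence, scaled from vehicle to positive-control wells, with duplicates averaged where present. The cells, MPNST lines and primary human Schwann cells at 750–1000 per well, sat 72 h at 37 °C, 5% CO2, in 384-well plates preprinted with each compound at five concentrations in 10-fold steps. Four-parameter logistic fits were run on the data. These fits give drug sensitivity score and relative IC50 censored at the top concentration, and percent inhibition is reported at the top concentration.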

HS-Sch-2 = test: as above
How it was run: as §2

HSC1 [6] = test: as above
How it was run: as §2

HSC2 [7] = test: as above
How it was run: as §2

S1507-2 [8] = test: as above
How it was run: as §2

S462 = test: as above
How it was run: as §2

ST8814 [9] = test: as above
How it was run: as §2

STS26T [10] = test: as above
How it was run: as §2

YST-1 = test: as above
How it was run: as §2

SMILES | relative IC50 (HSC1 [1]) | relative IC50 (HSC2 [2]) | relative IC50 (S1507-2 [3]) | relative IC50 (ST8814 [4]) | relative IC50 (STS26T [5]) | relative IC50 (HS-PSS) | relative IC50 (HS-Sch-2) | relative IC50 (HSC1 [6]) | relative IC50 (HSC2 [7]) | relative IC50 (S1507-2 [8]) | relative IC50 (S462) | relative IC50 (ST8814 [9]) | relative IC50 (STS26T [10]) | relative IC50 (YST-1)
CC(=O)Nc1ccc(C(=O)Nc2ccccc2N)cc1 [Tacedinaline] | > 1000 nM | > 1000 nM | > 1000 nM | > 1000 nM | > 1000 nM | > 1000 nM | > 1000 nM | > 1000 nM | > 1000 nM | > 1000 nM | > 1000 nM | > 1000 nM | > 1000 nM | > 1000 nM
NC(=O)Nc1cc(-c2cccc(F)c2)sc1C(=O)N[C@H]1CCCNC1 [AZD7762] | 313 nM | 266 nM | 57.1 nM | 243 nM | 135 nM | 207 nM | 67 nM | 161 nM | 310 nM | 63.1 nM | 54.7 nM | 149 nM | 139 nM | 313 nM
CCC1=C[C@@H]2CN(C1)Cc1c([nH]c3ccccc13)[C@@](C(=O)OC)(c1cc3c(cc1OC)N(C)[C@H]1[C@@](O)(C(=O)OC)[C@H](OC(C)=O)[C@]4(CC)C=CCN5CC[C@]31[C@@H]54)C2 [Vinorelbine] | 484 nM | 647 nM | 129 nM | 212 nM | 15.3 nM | 21.4 nM | 4.21 nM | 153 nM | 95.7 nM | 109 nM | 34 nM | 140 nM | 22.5 nM | 3 nM
CC(=O)O[C@@]12CO[C@@H]1C[C@H](O)[C@@]1(C)C(=O)[C@H](O)C3=C(C)[C@@H](OC(=O)[C@H](O)[C@@H](NC(=O)OC(C)(C)C)c4ccccc4)C[C@@](O)([C@@H](OC(=O)c4ccccc4)[C@H]21)C3(C)C [Docetaxel] | 6.11 nM | 8.43 nM | 6.13 nM | 4.62 nM | 1.15 nM | 3.86 nM | 2.11 nM | 3.08 nM | 4.15 nM | 8.6 nM | 0.759 nM | 3.95 nM | 1.07 nM | 1.02 nM
O=C1NC(=O)[C@@H](c2cn3c4c(cccc24)CCC3)[C@@H]1c1c[nH]c2ccccc12 [Tivantinib] | 240 nM | 243 nM | 253 nM | 328 nM | 210 nM | 239 nM | 231 nM | 276 nM | 251 nM | 254 nM | 340 nM | 330 nM | 239 nM | 190 nM
COC(=O)C[C@](O)(CCCC(C)(C)O)C(=O)O[C@@H]1C(OC)=C[C@]23CCCN2CCc2cc4c(cc2[C@H]13)OCO4 [Omacetaxine] | 1090 nM | 589 nM | 524 nM | 489 nM | 130 nM | 47 nM | 67.5 nM | 51.7 nM | 50.8 nM | 66.1 nM | 23.8 nM | 46.5 nM | 41.6 nM | 9.94 nM
